Article PMC5571739 (Journal of neuro-oncology, 2016)
Values joined by “and” are separate entries in the source; they are usually repeats but may differ in a detail not shown here. Identical values can stand only once.

Tests used:
[1] = Plasma pharmacokinetics of RO4929097 alone and with bevacizumab; format: in vivo, human; details: for AUC24: plasma, geometric mean; for AUC24 Δ% / Cmax Δ%: day 15 with bevacizumab vs day 1 alone
[2] = system: patients with recurrent malignant gliomas
[3] = system: hepatic CYP450 enzyme system; details: cited from earlier work

| Compound | AUC24 ([1]; 5 mg oral, day 1, no concurrent bevacizumab) | AUC24 ([1]; 5 mg oral, day 15, concurrent bevacizumab) | AUC24 Δ% ([1]; 5 mg) [%] | AUC24 ([1]; 10 mg oral, day 1, no concurrent bevacizumab) | AUC24 Δ% ([1]; 10 mg) [%] | Cmax Δ% ([1]; 10 mg) [%] | AUC24 ([1]; 20 mg oral, day 1, no concurrent bevacizumab) | AUC24 ([1]; 20 mg oral, day 15, concurrent bevacizumab) | AUC24 Δ% ([1]; 20 mg) [%] | Cmax Δ% ([1]; 20 mg) [%] | Dose proportionality of mean Cmax ([1]; escalation of the dose from 5 to 20 mg) | Definitive maximum tolerated dose ([2]; in combination with bevacizumab, drug production halted) | Recommended phase II dose ([2]; orally 3 days on/4 days off each week in combination with bevacizumab) [mg/kg] | Substrate or modulator of hepatic CYP450 enzyme system [3] |
| --- | --- | --- | --- | --- | --- | --- | --- | --- | --- | --- | --- | --- | --- | --- |
| CC(C)(C(=O)NCC(F)(F)C(F)(F)F)C(=O)N[C@@H]1C(=O)Nc2ccccc2-c2ccccc21 [RO4929097] | 1,215 ng●h/mL | 1,212 ng●h/mL | −0.2 | 2,385 ± 606 ng●h/mL and 2,385 ng●h/mL | −1.5 | 7.0 | 2,232 ± 781 ng●h/mL and 2,232 ng●h/mL | 2,555 ng●h/mL | 14.5 | 1.9 | increased less than proportionately | not identified | 10 | – |
| Bevacizumab: monoclonal antibody directed against vascular endothelial growth factor | – | – | – | – | – | – | – | – | – | – | – | – | – | not a substrate or modulator |
